# Data reported in patent US8008305B2, “TAAR1 ligands” (Hoffmann-La Roche Inc., priority 2007, dated 2011).
# pKd: −log10 of the molar value.
# Target: T1, TAAR1 (Mus musculus, UniProt Q923Y8)
# T1 construct: expressed in transfected cells; host or cells: HEK293 cells (ATCC # CRL-1573), stably transfected with pIRESneo2 expression plasmid; membranes prepared
# Assay: Radioligand binding ([3H]-rac-2-(1,2,3,4-tetrahydro-1-naphthyl)-2-imidazoline) on membranes of HEK293 cells stably expressing TAAR1
# Conditions: TAAR1 binding assay; species not given; read-out: calculated Kd value of the radioligand
# Method: Construction of TAAR Expression Plasmids and Stably Transfected Cell Lines
# For the construction of expression plasmids the coding sequences of human, rat and mouse TAAR 1 were amplified from genomic DNA essentially as described by Lindemann et al.. The Expand High Fidelity PCR System (Roche Diagnostics) was used with 1.5 mM Mg^2+ and purified PCR products were cloned into pCR2.1-TOPO cloning vector (Invitrogen) following the instructions of the manufacturer. PCR products were subcloned into the pIRESneo2 vector (BD Clontech, Palo Alto, Calif.), and expression vectors were sequence verified before introduction in cell lines.
# HEK293 cells (ATCC # CRL-1573) were cultured essentially as described Lindemann et al. (2005). For the generation of stably transfected cell lines HEK293 cells were transfected with the pIRESneo2 expression plasmids containing the TAAR coding sequences (described above) with Lipofectamine 2000 (Invitrogen) according to the instructions of the manufacturer, and 24 hrs post transfection the culture medium was supplemented with 1 mg/ml G418 (Sigma, Buchs, Switzerland). After a culture period of about 10 d clones were isolated, expanded and tested for responsiveness to trace amines (all compounds purchased from Sigma) with the cAMP Biotrak Enzyme immunoassay (EIA) System (Amersham) following the non-acetylation EIA procedure provided by the manufacturer.
# Membrane Preparation and Radioligand Binding
# Cells at confluence were rinsed with ice-cold phosphate buffered saline without Ca^2+ and Mg^2+ containing 10 mM EDTA and pelleted by centrifugation at 1000 rpm for 5 min at 4° C. The pellet was then washed twice with ice-cold phosphate buffered saline and cell pellet was frozen immediately by immersion in liquid nitrogen and stored until use at −80° C. Cell pellet was then suspended in 20 ml HEPES-NaOH (20 mM), pH 7.4 containing 10 mM EDTA, and homogenized with a Polytron (PT 3000, Kinematica) at 10,000 rpm for 10 s. The homogenate was centrifuged at 48,000×g for 30 min at 4° C. and the pellet resuspended in 20 ml HEPES-NaOH (20 mM), pH 7.4 containing 0.1 mM EDTA (buffer A), and homogenized with a Polytron at 10,000 rpm for 10 s. The homogenate was then centrifuged at 48,000×g for 30 min at 4° C. and the pellet resuspended in 20 ml buffer A, and homogenized with a Polytron at 10,000 rpm for 10 s. Protein concentration was determined by the method of Pierce (Rockford, Ill.). The homogenate was then centrifuged at 48,000×g for 10 min at 4° C., resuspended in HEPES-NaOH (20 mM), pH 7.0 including MgCl2 (10 mM) and […] homogenized with a Polytron at 10,000 rpm for 10 s.
# Binding assay was performed at 4° C. in a final volume of 1 ml, and with an incubation time of 30 min. The radioligand [^3H]-rac-2-(1,2,3,4-tetrahydro-1-naphthyl)-2-imidazoline was used at a concentration equal to the calculated Kd value of 60 nM to give a bound at around 0.1% of the total added radioligand concentration, and a specific binding which represented approximately 70-80% of the total binding. Non-specific binding was defined as the amount of [^3H]-rac-2-(1,2,3,4-tetrahydro-1-naphthyl)-2-imidazoline bound in the presence of the appropriate unlabelled ligand (10 μM). Competing ligands were tested in a wide range of concentrations (10 pM-30 μM). […] Each experiment was performed in duplicate. All incubations were terminated by rapid filtration through UniFilter-96 plates (Packard Instrument Company) and glass filter GF/C, pre-soaked for at least 2 h in polyethylenimine 0.3%, and using a Filtermate 96 Cell Harvester (Packard Instrument Company). The tubes and filters were then washed 3 times with 1 ml aliquots of cold buffer B. Filters were not dried and soaked in Ultima gold (45 μl/well, Packard Instrument Company) and bound radioactivity was counted by a TopCount Microplate Scintillation Counter (Packard Instrument Company).
# T1 sequence (Q923Y8 whole entry): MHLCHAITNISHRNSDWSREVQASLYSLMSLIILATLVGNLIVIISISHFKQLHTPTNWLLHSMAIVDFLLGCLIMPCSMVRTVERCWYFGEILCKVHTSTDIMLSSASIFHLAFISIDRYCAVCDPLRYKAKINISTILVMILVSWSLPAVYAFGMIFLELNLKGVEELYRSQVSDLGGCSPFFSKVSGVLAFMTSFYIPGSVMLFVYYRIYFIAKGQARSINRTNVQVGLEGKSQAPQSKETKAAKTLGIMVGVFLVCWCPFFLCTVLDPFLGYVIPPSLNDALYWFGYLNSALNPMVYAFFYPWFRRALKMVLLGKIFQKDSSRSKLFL
row,Structure (SMILES),pKd
1,"c1ccc2c(c1)CCCC2C1=NCCN1 (racemic) [[^3H]-rac-2-(1,2,3,4-tetrahydro-1-naphthyl)-2-imidazoline, reference compound]",7.22

# Same assay, conditions: mouse TAAR1; radioligand at 60 nM, 4° C., 30 min incubation
row,Structure (SMILES),Ki [µM]
1,CN1CCN(c2ccc(C(=O)NCc3ccc(Cl)cc3)cn2)CC1 [Example 2],0.013
2,"CN1CCN(c2ncc(C(=O)NCCc3ccc(Oc4ccccc4)cc3)cc2Br)CC1 [Example 32, 5-Bromo-6-(4-methyl-piperazin-1-yl)-N-[2-(4-phenoxy-phenyl)-ethyl]-nicotinamide]",0.005
3,"CN1CCN(c2ccc(C(=O)NCC3CCCCC3)cn2)CC1 [Example 55, N-Cyclohexylmethyl-6-(4-methyl-piperazin-1-yl)-nicotinamide]",0.062
4,"O=C(NCCc1ccc(OCc2ccccc2)cc1)c1ccc(N2CCNCC2)nc1 [Example 30, N-[2-(4-Benzyloxy-phenyl)-ethyl]-6-piperazin-1-yl-nicotinamide]",0.028
5,"O=C(NCCc1ccc(Oc2ccccc2)cc1)c1ccc(N2CCNCC2)nc1 [Example 28, N-[2-(4-Phenoxy-phenyl)-ethyl]-6-piperazin-1-yl-nicotinamide]",0.016
6,"CN1CCN(c2ccc(C(=O)NCCc3ccc(-c4ccccc4)cc3)cn2)CC1 [Example 12, N-(2-Biphenyl-4-yl-ethyl)-6-(4-methyl-piperazin-1-yl)-nicotinamide]",0.028
7,"CN1CCN(c2ccc(C(=O)NCCc3ccccc3)cn2)CC1 [A, 6-(4-methyl-piperazin-1-yl)-N-phenethyl-nicotinamide, reference compound]",0.044
8,"CN1CCN(c2ccc(C(=O)NCCC3CCCCC3)cn2)CC1 [Example 54, N-(2-Cyclohexyl-ethyl)-6-(4-methyl-piperazin-1-yl)-nicotinamide]",0.012
9,"O=C(NCCc1cccc(Oc2ccccc2)c1)c1ccc(N2CCNCC2)nc1 [Example 29, N-[2-(3-Phenoxy-phenyl)-ethyl]-6-piperazin-1-yl-nicotinamide]",0.071
10,"CN1CCN(c2ccc(C(=O)NCCc3cccc(Oc4ccccc4)c3)cn2)CC1 [Example 14, 6-(4-Methyl-piperazin-1-yl)-N-[2-(3-phenoxy-phenyl)-ethyl]-nicotinamide]",0.068
11,"CN1CCN(c2ccc(C(=O)NCCc3cccc(C(F)(F)F)c3)cn2)CC1 [Example 8, 6-(4-Methyl-piperazin-1-yl)-N-[2-(3-trifluoromethyl-phenyl)-ethyl]-nicotinamide]",0.01
12,"CN1CCN(c2ccc(C(=O)NCCc3cccc(Cl)c3)cn2)CC1 [Example 7, N-[2-(3-Chloro-phenyl)-ethyl]-6-(4-methyl-piperazin-1-yl)-nicotinamide]",0.027
13,"CN1CCN(c2ncc(C(=O)NCCc3ccc(Cl)cc3)cc2Br)CC1 [Example 31, 5-Bromo-N-[2-(4-chloro-phenyl)-ethyl]-6-(4-methyl-piperazin-1-yl)-nicotinamide]",0.006
14,"CN1CCN(c2ccc(C(=O)NCCc3cn(C)c4ccccc34)cn2)CC1 [Example 18, N-[2-(1-Methyl-1H-indol-3-yl)-ethyl]-6-(4-methyl-piperazin-1-yl)-nicotinamide]",0.023
15,"COc1cccc(CCNC(=O)c2ccc(N3CCN(C)CC3)nc2)c1 [Example 10, N-[2-(3-Methoxy-phenyl)-ethyl]-6-(4-methyl-piperazin-1-yl)-nicotinamide]",0.049
16,"CN1CCN(c2ccc(C(=O)NCCc3ccc(Oc4ccccc4)cc3)cn2)CC1 [Example 13, 6-(4-Methyl-piperazin-1-yl)-N-[2-(4-phenoxy-phenyl)-ethyl]-nicotinamide]",0.004

# Next, values leading:
row,Ki [µM],Structure (SMILES)
1,0.091,"COc1ccc(CCNC(=O)c2ccc(N3CCN(C)CC3)nc2)cc1 [Example 9, N-[2-(4-Methoxy-phenyl)-ethyl]-6-(4-methyl-piperazin-1-yl)-nicotinamide]"
2,0.081,"O=C(NCCc1ccc(Cl)cc1)c1ccc(N2CCNCC2)nc1 [Example 26, N-[2-(4-Chloro-phenyl)-ethyl]-6-piperazin-1-yl-nicotinamide]"
3,0.071,"CN1CCN(c2ccc(C(=O)NCc3ccccc3)cn2)CC1 [Example 1, N-Benzyl-6-(4-methyl-piperazin-1-yl)-nicotinamide]"
4,0.043,"CN1CCN(c2ccc(C(=O)NCCc3ccc4c(c3)OCO4)cn2)CC1 [Example 11, N-(2-Benzo[1,3]dioxol-5-yl-ethyl)-6-(4-methyl-piperazin-1-yl)-nicotinamide]"
5,0.019,"CN1CCC(Oc2ccc(C(=O)NCCc3ccc(Oc4ccccc4)cc3)cn2)CC1 [Example 24, 6-(1-Methyl-piperidin-4-yloxy)-N-[2-(4-phenoxy-phenyl)-ethyl]-nicotinamide]"
6,0.019,"O=C(NCCc1ccc(Cl)cc1)c1cnc(N2CCNCC2)c(Br)c1 [Example 33, 5-Bromo-N-[2-(4-chloro-phenyl)-ethyl]-6-piperazin-1-yl-nicotinamide]"
7,0.009,"O=C(NCCc1ccc(Oc2ccccc2)cc1)c1cnc(N2CCNCC2)c(Br)c1 [Example 34, 5-Bromo-N-[2-(4-phenoxy-phenyl)-ethyl]-6-piperazin-1-yl-nicotinamide]"
8,0.006,"CN1CCN(c2ccc(C(=O)NCCc3ccc(OCc4ccccc4)cc3)cn2)CC1 [Example 15, N-[2-(4-Benzyloxy-phenyl)-ethyl]-6-(4-methyl-piperazin-1-yl)-nicotinamide]"
9,0.005,"CN1CCN(c2ccc(C(=O)NCCc3ccc(Cl)cc3)cn2)CC1 [Example 6, N-[2-(4-Chloro-phenyl)-ethyl]-6-(4-methyl-piperazin-1-yl)-nicotinamide]"
